Data published in patent US11026943B2, “Aminoquinoline derivatives and uses thereof” (UNIVERSITY OF DELHI, priority 2012, dated 2021).

Experiments:
Nurr1 DBD = molecular target: T1, Nurr1 DBD (Mus musculus, UniProt Q06219); assay: GAL4 / GAL4-Nurr1 DBD reporter assay; format: cell-based
T1 construct: the yeast transcription factor GAL4's DBD is fused to either Nurr1 LBD or DBD; expressed in transfected cells; host or cells: SK-N-BE(2)C human neuroblastoma cells

[1] = molecular target: T2, Nurr1 interaction with SRC-1 and SRC-3 (Mus musculus, UniProt Q06219); assay: Co-immunoprecipitation of Nurr1 with SRC-1/SRC-3 in SK-N-BE(2)C cells; format: cell-based; settings: 30 μM AQ or 100 μM CQ for 16 hours
T2 construct: the C-terminal myc-tagged full-length Nurr1; His (from vector pCDNA3.1/myc-His) (C); expressed in transfected cells; host or cells: SK-N-BE(2)C human neuroblastoma cells

Nurr1 LBD [2] = molecular target: T3, Nurr1 LBD (Mus musculus, UniProt Q06219); assay: Surface plasmon resonance (BIAcore) binding, Nurr1-LBD
Description: Binding experiments were performed with the surface Plasmon Resonance-based biosensor instrument BIAcore 3000 (BIAcore AB, Uppsala). Immobilization of the purified proteins on the sensor surface was performed following the standard amine coupling procedure according to manufacturer's instructions. The final immobilization response of each protein was 6000 resonance units. A reference surface was generated simultaneously under the same conditions with BSA and used as a blank to correct for instrument and buffer artifacts. AQ and kanamycin were injected at variable concentrations at 20 μl/min flow rate, and binding to the protein immobilized on the chip was monitored in real-time. […] Binding data were analyzed using the BIAcore 3000 CONTROL® software and the BIAEVALUATION® software.
To investigate whether AQ and CQ physically interact with Nurr1's LBD, the inventors purified the Nurr1 LBD polypeptide (amino acid 328-598) and analyzed their physical binding using the Biacore S51 SPR sensor, which has a higher sensitivity and improved fluidics, enabling the monitoring of small signal changes derived from binding of compounds to proteins.

Nurr1 LBD [3] = molecular target: T3, Nurr1 LBD; assay: Filter binding assay with [3H]-CQ (saturation and competition); settings: 500 nM [3H]-CQ
Excerpt: The basal level of transcriptional activity was normalized to 1. The bars represent means±SEM from three independent experiments. (FIG. 13C) Effect of Nurr1 specific siRNA on Nurr1 LBD's transactivation activity. […] (FIG. 13D) Human neuroblastoma SK-N-BE(2)C cells were transfected with the N-terminal flag-tagged SRC1 or SRC3 and the C-terminal myc-tagged full-length Nurr1. […] Cell lysates were immunoprecipitated (IP) using anti-flag antibodies and analyzed by immunoblotting (IB) using anti-myc antibodies. […] The fold induction was derived by comparing each luciferase activity to basal level obtained by non-SRC transfection. […] The concentrations (04) are shown next to the arrows. […] Specific binding was calculated as the difference of total and non-specific binding. The insert indicates Scatchard analysis of the specific binding. […] The data represent the average of triplicate from three independent experiments. All graphs, Kd, Ki, and Bmax values were generated using the non-linear regression program Prism version 5.02.
GF/C filters were wet with in binding buffer and placed on a 48-place filter manifold. […] Filters were washed with 4×100 ml binding buffer, dried, and mixed with 5 ml Scintiverse BD (Fisher) and radioactivity was determined in a Beckman LS6000SC liquid scintillation counter. […] The mixture was applied to GF/C filter and filter was washed and counted as described above.

T3 sequence (Q06219 328-598): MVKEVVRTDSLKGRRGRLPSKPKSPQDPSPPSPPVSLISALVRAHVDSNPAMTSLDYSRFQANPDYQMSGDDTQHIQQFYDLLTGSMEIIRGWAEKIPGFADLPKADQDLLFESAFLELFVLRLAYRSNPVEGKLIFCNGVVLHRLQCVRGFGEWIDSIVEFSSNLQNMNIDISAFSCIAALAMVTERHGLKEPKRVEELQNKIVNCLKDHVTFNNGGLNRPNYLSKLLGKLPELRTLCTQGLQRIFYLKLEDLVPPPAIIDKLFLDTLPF
T2 sequence (Q06219 whole entry): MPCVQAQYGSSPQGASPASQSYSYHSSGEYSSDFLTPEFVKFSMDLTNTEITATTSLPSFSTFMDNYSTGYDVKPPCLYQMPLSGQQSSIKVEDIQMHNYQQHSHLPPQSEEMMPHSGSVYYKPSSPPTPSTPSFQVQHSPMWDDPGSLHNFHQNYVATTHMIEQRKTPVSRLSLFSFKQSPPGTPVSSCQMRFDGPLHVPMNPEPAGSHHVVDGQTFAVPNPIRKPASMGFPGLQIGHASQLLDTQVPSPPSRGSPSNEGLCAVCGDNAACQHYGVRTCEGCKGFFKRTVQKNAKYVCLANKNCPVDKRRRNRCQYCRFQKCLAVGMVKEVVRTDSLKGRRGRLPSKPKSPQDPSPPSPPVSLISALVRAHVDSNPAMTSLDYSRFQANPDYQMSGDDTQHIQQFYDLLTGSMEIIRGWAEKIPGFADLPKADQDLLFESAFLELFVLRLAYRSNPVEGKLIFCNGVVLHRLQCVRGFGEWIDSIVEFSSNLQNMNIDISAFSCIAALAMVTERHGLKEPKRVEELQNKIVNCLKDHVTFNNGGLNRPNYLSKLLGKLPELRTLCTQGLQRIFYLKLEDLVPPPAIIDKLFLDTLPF
T1 sequence (Q06219 260-335 limits assumed): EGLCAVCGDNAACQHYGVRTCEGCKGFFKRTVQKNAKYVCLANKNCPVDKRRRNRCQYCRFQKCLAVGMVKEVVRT

- response with GAL4 or GAL4-Nurr1 DBD (Nurr1 DBD): no response
- Nurr1 interactions with SRC-1 and SRC-3 [1]: significantly enhanced
- binding to Nurr1-LBD (SPR) (Nurr1 LBD [2]): specifically bound
- Ki (Nurr1 LBD [3]): 246 nM
Compound: CCN(CC)Cc1cc(Nc2ccnc3cc(Cl)ccc23)ccc1O [AQ, amodiaquine]
